Source: ChEMBL document CHEMBL1131086, “Synthesis and biological activity of conformationally restricted analogues of milnacipran: (1S, 2R)-1-phenyl-2-[(R)-1-amino-2-propynyl]-N,N- diethylcyclopropanecarboxamide is a novel class of NMDA receptor channel blocker” (J Med Chem, 1998)

How the values were obtained:
[1] = target: Sodium-dependent serotonin transporter (Rattus norvegicus, UniProt P31652); assay: Inhibition of Serotonin transporter in cerebral cortical synaptic membrane of rats using [3H]paroxetine
Glutamate NMDA receptor = target: Glutamate NMDA receptor; design: species or system Rattus norvegicus
Description: Inhibition of [3H]MK-801 binding to N-methyl-D-aspartate glutamate receptor of rat cerebral cortical synaptic membrane

[2] = target: Glutamate receptor ionotropic, kainate (Rattus norvegicus) (UniProt P22756+Q01812+P42260+P42264+Q63273); assay: Compound tested for relative response using 30 uM kainate as agonist against Ionotropic glutamate receptor kainate; assay type: functional
[3] = target: Glutamate receptor ionotropic, NMDA 1 (Rattus norvegicus) (UniProt P35439); assay: Compound tested for relative response using 30 uM NMDA+10 uM glycine as agonist against N-methyl-D-aspartate glutamate receptor 1; assay type: functional
[4] = target: GABA-A receptor; anion channel (Rattus norvegicus) (UniProt O09028+P15431+P18506+P18508+P19969+P20236+P23574+P23576+P28471+P28473+P30191+P62813+P63079+P63138+Q91ZM7+Q9ES14); assay: Compound tested for relative response using 30 uM GABA as agonist against Gamma-aminobutyric acid A receptor; assay type: functional
[5] = target: Glutamate receptor ionotropic, AMPA (Rattus norvegicus) (UniProt P19491+P19492+P19493+P19490); assay: Compound tested for relative response using 10 uM AMPA as agonist against Ionotropic glutamate receptor AMPA; assay type: functional
[6] = target: T1, 5-hydroxytryptamine receptor 2C (Rattus norvegicus) (UniProt P08909); assay: Compound tested for relative response using 0.1 uM 5-HT as agonist against 5-hydroxytryptamine 2C receptor; assay type: functional
T1 sequence (whole entry): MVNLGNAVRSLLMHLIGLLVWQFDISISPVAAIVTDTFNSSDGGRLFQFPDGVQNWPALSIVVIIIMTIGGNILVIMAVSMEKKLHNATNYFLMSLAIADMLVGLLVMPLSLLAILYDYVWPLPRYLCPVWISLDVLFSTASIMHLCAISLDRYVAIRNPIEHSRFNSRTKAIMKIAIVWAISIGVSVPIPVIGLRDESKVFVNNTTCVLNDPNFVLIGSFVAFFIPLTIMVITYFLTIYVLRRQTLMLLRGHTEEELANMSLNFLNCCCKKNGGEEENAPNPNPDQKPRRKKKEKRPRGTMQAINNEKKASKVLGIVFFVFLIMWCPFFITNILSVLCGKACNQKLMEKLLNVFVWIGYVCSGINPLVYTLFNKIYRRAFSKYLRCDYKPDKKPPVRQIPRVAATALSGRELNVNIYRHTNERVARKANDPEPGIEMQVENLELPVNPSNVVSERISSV

[7] = target: T2, Muscarinic acetylcholine receptor M1 (Rattus norvegicus) (UniProt P08482); assay: Compound tested for relative response using 1 uM ACh as agonist against AChM1 receptor.; assay type: functional
T2 sequence (whole entry): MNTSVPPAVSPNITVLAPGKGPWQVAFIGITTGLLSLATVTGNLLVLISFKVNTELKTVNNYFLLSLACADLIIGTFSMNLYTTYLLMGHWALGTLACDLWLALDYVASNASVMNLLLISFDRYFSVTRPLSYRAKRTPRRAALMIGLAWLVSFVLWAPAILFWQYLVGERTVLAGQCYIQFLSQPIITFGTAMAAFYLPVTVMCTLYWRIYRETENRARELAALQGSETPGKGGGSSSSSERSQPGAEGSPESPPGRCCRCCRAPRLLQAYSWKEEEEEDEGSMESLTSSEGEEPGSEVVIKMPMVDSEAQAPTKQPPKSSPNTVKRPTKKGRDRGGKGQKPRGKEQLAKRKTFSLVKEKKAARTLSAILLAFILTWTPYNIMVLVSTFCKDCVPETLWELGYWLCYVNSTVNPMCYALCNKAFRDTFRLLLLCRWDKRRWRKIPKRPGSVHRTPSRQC

Sequence of Sodium-dependent serotonin transporter (P31652 whole entry): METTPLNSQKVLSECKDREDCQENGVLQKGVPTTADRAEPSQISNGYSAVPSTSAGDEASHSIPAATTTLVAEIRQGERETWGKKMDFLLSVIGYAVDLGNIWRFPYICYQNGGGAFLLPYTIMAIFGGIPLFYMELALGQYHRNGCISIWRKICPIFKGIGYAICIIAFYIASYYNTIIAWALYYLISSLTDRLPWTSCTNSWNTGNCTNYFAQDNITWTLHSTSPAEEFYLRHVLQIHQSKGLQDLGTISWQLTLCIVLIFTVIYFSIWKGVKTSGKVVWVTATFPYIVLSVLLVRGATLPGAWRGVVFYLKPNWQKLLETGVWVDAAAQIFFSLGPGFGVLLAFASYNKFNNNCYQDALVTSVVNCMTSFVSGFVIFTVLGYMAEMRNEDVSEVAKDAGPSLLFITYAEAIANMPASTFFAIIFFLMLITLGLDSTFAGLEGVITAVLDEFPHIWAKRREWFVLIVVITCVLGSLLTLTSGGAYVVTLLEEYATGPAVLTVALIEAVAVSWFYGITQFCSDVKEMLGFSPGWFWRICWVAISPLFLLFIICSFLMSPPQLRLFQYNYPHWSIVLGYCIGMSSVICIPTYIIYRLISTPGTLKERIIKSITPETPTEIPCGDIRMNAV

Ki [1] [µM] | IC50 (Glutamate NMDA receptor) [µM] | SMILES | also measured
25 | > 100 | CCN(CC)C(=O)[C@@]1(c2ccccc2)C[C@H]1C(N)C(=O)OC (some centres undefined) | 
> 100 | > 100 | CCN(CC)C(=O)[C@@]1(c2ccccc2)C[C@H]1C(N)C(=O)O (some centres undefined) | 
> 100 | 27 | CCN(CC)C(=O)[C@@]1(c2ccccc2)C[C@H]1C(N)C(N)=O (some centres undefined) | 
0.19 | 0.29 | C#CC(N)[C@@H]1C[C@@]1(C(=O)N(CC)CC)c1ccccc1 (stereo in doubt; 2d) [listing 1 of 2 here] | 
 |  | C#CC(N)[C@@H]1C[C@@]1(C(=O)N(CC)CC)c1ccccc1 (stereo in doubt; 2d) [listing 2 of 2 here] | Relative response [2]: 96.9%; Relative response [3]: 32.1%; Relative response [4]: 99.6%; Relative response [5]: 100%; Relative response [6]: 100%; Relative response [7]: 102%
> 100 | 96 | CCN(CC)C(=O)[C@@]1(c2ccccc2)C[C@H]1C(N)C#N (stereo in doubt; 2e) | 
15 | 16 | C#CC(N)[C@@H]1C[C@@]1(C(=O)N(CC)CC)c1ccccc1 (stereo in doubt; 3d) | 
 | > 100 | CCN(CC)C(=O)[C@@]1(c2ccccc2)C[C@H]1C(N)C#N (stereo in doubt; 3e) | 
